For series [1], the system named is E. coli. Nature of the series: AOAC Germicidal Test procedure. The series is classed as cell-based. Particulars: for E. coli organisms destroyed/killed: initial inoculum of E. coli 7.63 logs10/ml, equimolar amounts of the unionized acid form. The source says: […]. […] […].
Series [2] in a line: Acid ionization constants and lactic acid/lactate speciation. Format: physicochemical. The text has this: […]. When citric acid is used as the supplemental acid, less total acid is required to achieve a desired pH than, say, when using malic acid, which is half the strength of citric (Ka1 of citric is 8.2×10^−4 vs. 3.9×10^−4 for malic acid). Thus a smaller amount of lactic acid is used when it represents, say, 10% of a lactic/citric combination than a lactic/malic combination; […]. In certain embodiments, the metal lactate in these compositions is an alkali, an alkaline earth lactate, or a heavier metal lactate. […]. Useful alkaline earth metal lactates include magnesium and calcium lactate. Available heavier metal lactates are ferrous and aluminum lactates, although the cation flavor is intrusive. […]. At pH 2.5 96% of the two lactic species exist as lactic acid, which drops to 70% at pH 3.5. […].
The acid and chlorite solutions had first been equilibrated at 37° C., to simulate body temperature. The solution pHs, in both cases, were 3.0. After 10 minutes, the solution Absorbance values were measured at a wavelength of 360 nm in a spectrophotometer, and the concentration of chlorine dioxide (ClO2) then calculated, using the molar extinction coefficient of 1,242 liter/mole.cm. […]

The text below walks through data of patent US7678365B2, “Disinfecting oral rinse compositions and process for using the same” (priority 2001, dated 2010).

In the case of `CC(O)C(=O)O` (stereo not drawn) [lactic acid], the “E. coli organisms destroyed/killed” value in series [1] came to 4.15 logs10/ml. Moreover, the “fraction of the two lactic species existing as lactic acid” value amounted to 96% in series [2] (pH 2.5), 70% in series [2] (pH 3.5) and 42% in series [2] (pH 4.0).

In the case of `O=C(O)CC(O)C(=O)O` (stereo not drawn) [malic acid], in series [1], the “E. coli organisms destroyed/killed” value came to 1.45 logs10/ml. Moreover, the “residual E. coli organisms per ml after disinfection, malic acid-treated relative to lactic acid-treated suspension” value in series [1] (malic acid vs lactic acid) is roughly 1500 times.
